Measured values from patent US12233057B2, “Small molecules for inhibiting chemokine activity and/or cancer cells growth” (AlonBio Ltd., priority 2015, dated 2025).

What was measured:
Test in all cases: LanthaScreen europium kinase binding assay
TTK = TTK (Homo sapiens, UniProt P33981); conditions: BKT300 at 78% purity
Experimental: (§1) In order to further characterize the effect of BKT300 on cell signaling, kinase profiling of BKT300 (at 78% purity) was performed (by the Life Technologies SelectScreen® Biochemical Profiling Lab) using a LanthaScreen® europium kinase binding assay to screen 440 kinases.
(§2) The principle of the LanthaScreen® assay is depicted in FIG. 13. Binding of an Alexa Fluor® conjugate or “tracer” to a kinase is detected by addition of a europium (Eu)-labeled anti-tag antibody. Binding of the tracer and antibody to a kinase results in a high degree of FRET, whereas displacement of the tracer with a kinase inhibitor results in a loss of FRET. The kinase tracers are based on ATP-competitive kinase inhibitors, making them suitable for detection of any compounds that bind to the ATP site. Inhibitors that bind the ATP site include both Type I kinase inhibitors, which bind solely to the ATP site, and Type II inhibitors (e.g., imatinib, sorafenib, BIRB-796), which bind to both the ATP site and a second site often referred to as the allosteric site.

ICK = ICK (Homo sapiens, UniProt Q9UPZ9); conditions: BKT300 at 78% purity
Experimental: as §1, §2

CDC7/DBF4 = CDC7/DBF4 (Homo sapiens, UniProt O00311); conditions: BKT300 at 78% purity
Experimental: as §1, §2

KIT T670E = KIT T670E (Homo sapiens, UniProt P10721, T670E); conditions: BKT300 at 78% purity
Experimental: as §1, §2

MYLK (MLCK) = MYLK (MLCK) (Homo sapiens, UniProt Q15746); conditions: BKT300 at 78% purity
Experimental: as §1, §2

DYRK3 = DYRK3 (Homo sapiens, UniProt O43781); conditions: BKT300 at 78% purity
Experimental: as §1, §2

STK17A (DRAK1) = STK17A (DRAK1) (Homo sapiens, UniProt Q9UEE5); conditions: BKT300 at 78% purity
Experimental: as §1, §2

CDK1/cyclin A2 = CDK1/cyclin A2 (Homo sapiens, UniProt P06493); conditions: BKT300 at 78% purity
Experimental: as §1, §2

MAP4K1 (HPK1) = MAP4K1 (HPK1) (Homo sapiens, UniProt Q92918); conditions: BKT300 at 78% purity
Experimental: as §1, §2

PAK7 (KIAA1264) = PAK7 (KIAA1264) (Homo sapiens, UniProt Q9P286); conditions: BKT300 at 78% purity
Experimental: as §1, §2

EPHA8 = EPHA8 (Homo sapiens, UniProt P29322); conditions: BKT300 at 78% purity
Experimental: as §1, §2

NUAK2 = NUAK2 (Homo sapiens, UniProt Q9H093); conditions: BKT300 at 78% purity
Experimental: as §1, §2

MAPK10 (JNK3) = MAPK10 (JNK3) (Homo sapiens, UniProt P53779); conditions: BKT300 at 78% purity
Experimental: as §1, §2

CDK11 (Inactive) = CDK11 (Inactive) (Homo sapiens, UniProt Q9BWU1); conditions: BKT300 at 78% purity
Experimental: as §1, §2

MLCK (MLCK2) = MLCK (MLCK2) (Homo sapiens, UniProt Q9H1R3); conditions: BKT300 at 78% purity
Experimental: as §1, §2

CDK8/cyclin C = CDK8/cyclin C (Homo sapiens, UniProt P49336); conditions: BKT300 at 78% purity
Experimental: as §1, §2

MAP4K2 (GCK) = MAP4K2 (GCK) (Homo sapiens, UniProt Q12851); conditions: BKT300 at 78% purity
Experimental: as §1, §2

MELK = MELK (Homo sapiens, UniProt Q14680)
Experimental: as §1, §2

SRC N1 = SRC N1 (Homo sapiens, UniProt P12931); conditions: BKT300 at 78% purity
Experimental: as §1, §2

KIT D820E = KIT D820E (Homo sapiens, UniProt P10721, D820E); conditions: BKT300 at 78% purity
Experimental: as §1, §2

DYRK2 = DYRK2 (Homo sapiens, UniProt Q92630); conditions: BKT300 at 78% purity
Experimental: as §1, §2

SGK2 = SGK2 (Homo sapiens, UniProt Q9HBY8); conditions: BKT300 at 78% purity
Experimental: as §1, §2

ACVRL1 (ALK1) = ACVRL1 (ALK1) (Homo sapiens, UniProt P37023); conditions: BKT300 at 78% purity
Experimental: as §1, §2

STK17B (DRAK2) = STK17B (DRAK2) (Homo sapiens, UniProt O94768); conditions: BKT300 at 78% purity
Experimental: as §1, §2

GRK4 = GRK4 (Homo sapiens, UniProt P32298); conditions: BKT300 at 78% purity
Experimental: as §1, §2

GRK5 = GRK5 (Homo sapiens, UniProt P34947); conditions: BKT300 at 78% purity
Experimental: as §1, §2

PIK3CA = PIK3CA (Homo sapiens, UniProt P42336); conditions: BKT300 at 78% purity
Experimental: as §1, §2

MAP4K4 (HGK) = MAP4K4 (HGK) (Homo sapiens, UniProt O95819); conditions: BKT300 at 78% purity
Experimental: as §1, §2

BMPR1A (ALK3) = BMPR1A (ALK3) (Homo sapiens, UniProt P36894); conditions: BKT300 at 78% purity
Experimental: as §1, §2

STK38L (NDR2) = STK38L (NDR2) (Homo sapiens, UniProt Q9Y2H1); conditions: BKT300 at 78% purity
Experimental: as §1, §2

DAPK1 = DAPK1 (Homo sapiens, UniProt P53355); conditions: BKT300 at 78% purity
Experimental: as §1, §2

MELK, sequence (Q14680 whole entry): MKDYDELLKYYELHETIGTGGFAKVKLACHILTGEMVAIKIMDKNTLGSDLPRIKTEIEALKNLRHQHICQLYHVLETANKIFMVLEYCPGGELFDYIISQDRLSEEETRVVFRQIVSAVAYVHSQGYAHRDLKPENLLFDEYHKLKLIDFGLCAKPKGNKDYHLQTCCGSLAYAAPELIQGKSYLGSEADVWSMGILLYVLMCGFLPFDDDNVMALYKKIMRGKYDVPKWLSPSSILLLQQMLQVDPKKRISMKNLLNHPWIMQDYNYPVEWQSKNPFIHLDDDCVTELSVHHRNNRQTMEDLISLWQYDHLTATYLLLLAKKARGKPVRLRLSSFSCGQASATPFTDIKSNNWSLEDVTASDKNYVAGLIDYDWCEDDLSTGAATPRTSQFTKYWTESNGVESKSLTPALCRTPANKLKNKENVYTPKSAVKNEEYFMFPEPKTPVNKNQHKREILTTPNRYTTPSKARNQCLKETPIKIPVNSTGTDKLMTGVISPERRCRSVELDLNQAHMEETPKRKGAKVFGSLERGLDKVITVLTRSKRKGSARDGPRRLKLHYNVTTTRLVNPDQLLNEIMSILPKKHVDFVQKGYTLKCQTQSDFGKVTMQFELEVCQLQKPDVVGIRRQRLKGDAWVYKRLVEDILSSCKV
STK17A (DRAK1), sequence (Q9UEE5 whole entry): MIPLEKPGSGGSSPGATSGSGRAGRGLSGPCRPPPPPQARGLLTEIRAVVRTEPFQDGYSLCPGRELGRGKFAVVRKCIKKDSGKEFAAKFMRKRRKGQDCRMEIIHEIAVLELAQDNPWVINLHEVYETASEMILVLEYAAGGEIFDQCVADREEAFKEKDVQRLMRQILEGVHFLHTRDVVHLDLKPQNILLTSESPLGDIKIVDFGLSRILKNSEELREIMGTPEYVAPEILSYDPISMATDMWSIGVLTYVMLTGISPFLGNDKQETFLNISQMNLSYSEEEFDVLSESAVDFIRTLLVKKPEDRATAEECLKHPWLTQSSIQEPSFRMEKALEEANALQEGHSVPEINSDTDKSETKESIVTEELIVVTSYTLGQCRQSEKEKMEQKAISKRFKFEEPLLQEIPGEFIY
CDC7/DBF4, sequence (O00311 whole entry): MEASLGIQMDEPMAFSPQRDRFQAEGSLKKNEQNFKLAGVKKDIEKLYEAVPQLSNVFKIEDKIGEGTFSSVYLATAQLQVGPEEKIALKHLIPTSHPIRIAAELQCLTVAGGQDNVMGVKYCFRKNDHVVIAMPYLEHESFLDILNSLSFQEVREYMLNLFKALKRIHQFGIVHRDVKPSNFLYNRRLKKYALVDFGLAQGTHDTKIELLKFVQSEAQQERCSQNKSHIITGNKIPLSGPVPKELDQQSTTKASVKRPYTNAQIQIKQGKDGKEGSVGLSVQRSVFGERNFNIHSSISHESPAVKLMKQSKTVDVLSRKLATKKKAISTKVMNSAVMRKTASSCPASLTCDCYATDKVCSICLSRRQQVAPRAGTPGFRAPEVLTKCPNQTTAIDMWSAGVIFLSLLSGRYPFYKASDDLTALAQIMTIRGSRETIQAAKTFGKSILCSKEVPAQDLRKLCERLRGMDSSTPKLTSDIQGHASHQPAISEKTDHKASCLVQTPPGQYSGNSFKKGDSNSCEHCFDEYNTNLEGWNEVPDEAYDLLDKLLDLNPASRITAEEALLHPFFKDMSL
CDC7/DBF4, sequence (Q9UBU7 whole entry partner): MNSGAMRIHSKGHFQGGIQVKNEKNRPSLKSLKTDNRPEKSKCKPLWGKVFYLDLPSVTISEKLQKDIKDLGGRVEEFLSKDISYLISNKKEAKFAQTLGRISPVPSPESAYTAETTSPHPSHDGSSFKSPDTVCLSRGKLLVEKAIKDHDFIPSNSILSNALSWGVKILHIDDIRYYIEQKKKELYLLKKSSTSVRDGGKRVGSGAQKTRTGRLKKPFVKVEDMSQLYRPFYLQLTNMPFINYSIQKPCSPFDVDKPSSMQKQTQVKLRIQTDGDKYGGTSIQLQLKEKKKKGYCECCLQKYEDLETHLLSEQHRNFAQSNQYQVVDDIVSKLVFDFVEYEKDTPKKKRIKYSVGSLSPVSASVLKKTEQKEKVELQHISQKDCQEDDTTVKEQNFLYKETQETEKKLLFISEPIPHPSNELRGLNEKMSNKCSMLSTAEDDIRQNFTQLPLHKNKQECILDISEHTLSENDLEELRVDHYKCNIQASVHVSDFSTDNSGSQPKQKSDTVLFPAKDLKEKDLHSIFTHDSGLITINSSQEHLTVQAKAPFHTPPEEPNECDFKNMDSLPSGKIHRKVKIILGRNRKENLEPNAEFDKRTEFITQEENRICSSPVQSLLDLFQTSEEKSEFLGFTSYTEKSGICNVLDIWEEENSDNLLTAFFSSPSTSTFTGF
KIT T670E, sequence (P10721 26-976 T670E): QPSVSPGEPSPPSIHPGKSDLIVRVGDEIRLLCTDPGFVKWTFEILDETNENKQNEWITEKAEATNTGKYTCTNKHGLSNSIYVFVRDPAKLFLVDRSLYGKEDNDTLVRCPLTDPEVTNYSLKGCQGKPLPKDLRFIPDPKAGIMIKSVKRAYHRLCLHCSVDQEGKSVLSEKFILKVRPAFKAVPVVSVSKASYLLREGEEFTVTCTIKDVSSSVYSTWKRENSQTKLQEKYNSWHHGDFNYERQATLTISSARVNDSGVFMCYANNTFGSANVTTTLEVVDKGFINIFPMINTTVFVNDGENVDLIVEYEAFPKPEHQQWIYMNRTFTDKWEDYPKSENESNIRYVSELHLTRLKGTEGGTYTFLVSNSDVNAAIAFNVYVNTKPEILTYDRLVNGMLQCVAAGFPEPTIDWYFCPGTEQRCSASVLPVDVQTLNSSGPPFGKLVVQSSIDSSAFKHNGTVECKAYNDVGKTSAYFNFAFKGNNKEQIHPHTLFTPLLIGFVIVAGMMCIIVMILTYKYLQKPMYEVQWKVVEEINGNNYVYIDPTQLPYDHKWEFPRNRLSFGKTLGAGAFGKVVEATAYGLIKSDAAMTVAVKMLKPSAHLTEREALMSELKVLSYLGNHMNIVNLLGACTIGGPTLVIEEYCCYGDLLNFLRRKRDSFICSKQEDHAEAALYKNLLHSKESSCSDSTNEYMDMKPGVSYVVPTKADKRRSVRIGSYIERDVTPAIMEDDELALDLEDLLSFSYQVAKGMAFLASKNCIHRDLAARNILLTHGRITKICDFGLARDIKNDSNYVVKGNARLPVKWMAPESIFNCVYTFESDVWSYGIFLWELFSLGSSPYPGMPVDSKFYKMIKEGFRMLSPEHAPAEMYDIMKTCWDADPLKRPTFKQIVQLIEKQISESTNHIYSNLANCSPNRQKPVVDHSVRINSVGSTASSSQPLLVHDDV
PAK7 (KIAA1264), sequence (Q9P286 whole entry): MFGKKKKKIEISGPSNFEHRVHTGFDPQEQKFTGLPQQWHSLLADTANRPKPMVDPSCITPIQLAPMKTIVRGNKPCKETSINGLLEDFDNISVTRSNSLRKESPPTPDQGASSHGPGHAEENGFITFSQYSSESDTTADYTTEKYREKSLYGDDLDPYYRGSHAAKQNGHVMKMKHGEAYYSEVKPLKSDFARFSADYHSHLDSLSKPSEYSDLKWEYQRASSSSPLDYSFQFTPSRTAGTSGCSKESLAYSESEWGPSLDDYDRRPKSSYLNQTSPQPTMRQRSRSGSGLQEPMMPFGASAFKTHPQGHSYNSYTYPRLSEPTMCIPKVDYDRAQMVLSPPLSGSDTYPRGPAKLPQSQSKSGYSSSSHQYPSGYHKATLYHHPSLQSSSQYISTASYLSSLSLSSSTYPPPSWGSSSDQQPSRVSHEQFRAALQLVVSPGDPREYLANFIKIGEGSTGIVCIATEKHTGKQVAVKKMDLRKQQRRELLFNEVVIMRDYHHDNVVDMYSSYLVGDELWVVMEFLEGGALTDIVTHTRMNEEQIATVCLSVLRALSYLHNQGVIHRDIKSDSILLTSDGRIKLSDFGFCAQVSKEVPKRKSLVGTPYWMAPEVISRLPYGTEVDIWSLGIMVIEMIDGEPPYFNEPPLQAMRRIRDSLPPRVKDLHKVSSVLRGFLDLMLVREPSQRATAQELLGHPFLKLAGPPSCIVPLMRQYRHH
MAPK10 (JNK3), sequence (P53779 whole entry): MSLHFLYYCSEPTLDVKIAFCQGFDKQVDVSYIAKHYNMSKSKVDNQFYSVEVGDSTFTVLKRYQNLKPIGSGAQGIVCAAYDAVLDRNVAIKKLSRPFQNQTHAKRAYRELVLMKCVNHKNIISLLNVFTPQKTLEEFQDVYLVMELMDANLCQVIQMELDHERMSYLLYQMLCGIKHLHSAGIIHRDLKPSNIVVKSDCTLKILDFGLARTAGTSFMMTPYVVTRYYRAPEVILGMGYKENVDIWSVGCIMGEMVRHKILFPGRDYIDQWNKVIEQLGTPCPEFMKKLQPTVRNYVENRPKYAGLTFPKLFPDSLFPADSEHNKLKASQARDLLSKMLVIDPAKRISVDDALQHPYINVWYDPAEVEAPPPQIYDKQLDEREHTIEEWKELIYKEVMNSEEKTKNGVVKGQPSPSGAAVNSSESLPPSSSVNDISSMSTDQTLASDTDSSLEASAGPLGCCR
ACVRL1 (ALK1), sequence (P37023 22-503): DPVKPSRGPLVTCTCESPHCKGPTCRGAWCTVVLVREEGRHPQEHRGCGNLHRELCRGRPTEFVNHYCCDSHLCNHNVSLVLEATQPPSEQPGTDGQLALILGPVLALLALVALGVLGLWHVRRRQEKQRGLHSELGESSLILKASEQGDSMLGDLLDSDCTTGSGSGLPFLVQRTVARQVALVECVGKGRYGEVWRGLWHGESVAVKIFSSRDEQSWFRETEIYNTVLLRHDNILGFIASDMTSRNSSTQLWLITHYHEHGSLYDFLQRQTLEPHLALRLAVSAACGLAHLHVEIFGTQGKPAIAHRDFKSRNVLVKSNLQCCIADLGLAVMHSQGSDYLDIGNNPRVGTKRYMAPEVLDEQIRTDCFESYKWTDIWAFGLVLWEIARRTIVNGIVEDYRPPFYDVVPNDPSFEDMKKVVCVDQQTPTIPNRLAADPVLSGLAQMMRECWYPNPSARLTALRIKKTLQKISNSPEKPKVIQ
KIT D820E, sequence (P10721 26-976 D820E): as the sequence (P10721 26-976 T670E) above, with E645T, D795E counted along it

% Inhibition (TTK): 52% | % Inhibition (ICK): 41% | % Inhibition (CDC7/DBF4): 53% | % Inhibition (KIT T670E): 51% | % Inhibition (MYLK (MLCK)): 63% | % Inhibition (DYRK3): 47% | % Inhibition (STK17A (DRAK1)): 48% | % Inhibition (CDK1/cyclin A2): 45% | % Inhibition (MAP4K1 (HPK1)): 45% | % Inhibition (PAK7 (KIAA1264)): 40% | % Inhibition (EPHA8): 50% | % Inhibition (NUAK2): 89% | % Inhibition (MAPK10 (JNK3)): 49% | % Inhibition (CDK11 (Inactive)): 57% | % Inhibition (MLCK (MLCK2)): 58% | % Inhibition (CDK8/cyclin C): 64% | % Inhibition (MAP4K2 (GCK)): 48% | % Inhibition (MELK; BKT300 at 78% purity): 41% | Affinity of BKT300 to the kinase (MELK; based on the kinase screening assay summarized in Table 2, relatively low): few tens | % Inhibition (SRC N1): 41% | % Inhibition (KIT D820E): 42% | % Inhibition (DYRK2): 62% | % Inhibition (SGK2): 43% | % Inhibition (ACVRL1 (ALK1)): 47% | % Inhibition (STK17B (DRAK2)): 107% | % Inhibition (GRK4): 63% | % Inhibition (GRK5): 65% | % Inhibition (PIK3CA): 64% | % Inhibition (MAP4K4 (HGK)): 40% | % Inhibition (BMPR1A (ALK3)): 58% | % Inhibition (STK38L (NDR2)): 45% | % Inhibition (DAPK1): 43%
Compound: CCCCCc1cc2cc(O)cc(Oc3c(O)cc(O)cc3CCCCC)c2c(=O)o1 [BKT300]
